O=C(/C=C/c1ccc(O)c(O)c1)O[C@H](Cc1ccc(O)c(O)c1)C(=O)O
solubility (mole fraction)
Settings	293.15 K	298.15 K	303.15 K	308.15 K	313.15 K
in ethyl acetate	0.0345	0.0466	0.0506	0.0588	0.0722
in methyl acetate	0.0363	0.049	0.0533	0.0619	0.0764

From BigSolDB 2.1
